# Activity calls are given as the source filed them. No cut-off for these calls is given here.
# Experiments:
# [1] = tested on: Influenza A virus; test: Antiviral activity against influenza A virus H1N1 infected in MDCK cells; type: functional, organism-based
# [2] = Cytotoxicity against MDCK cells; type: toxicity, cell-based, Canis lupus familiaris; settings: dog
# [3] = Selectivity index, ratio of CC50 for MDCK cells to IC50 for influenza A virus infected in MDCK cells; type: toxicity, cell-based; settings: dog, read-out: Ratio CC50/IC50
# [4] = tested on: Infectious bronchitis virus; test: Antiviral activity against Infectious bronchitis virus; type: functional, organism-based
# [5] = tested on: Influenza A virus; test: Antiviral activity against Influenza A virus H3N2 subtype; type: functional, organism-based
# [6] = Cmax in Balb/c mouse at 25 mg/kg, po administered as single dose; type: ADME, organism-based; design: dose 25 mg/kg, route po; settings: in vivo
# [7] = Elimination half life in Balb/c mouse at 25 mg/kg, po administered as single dose; type: ADME, organism-based; settings: in vivo, read-out: beta t1/2 (converted)
# [8] = AUC (0 to infinity) in Balb/c mouse at 25 mg/kg, po administered as single dose; type: ADME, organism-based; design: dose 25 mg/kg, route po; settings: in vivo
# [9] = Tmax in Balb/c mouse at 25 mg/kg, po administered as single dose; type: ADME, organism-based; settings: in vivo
# [10] = tested on: Influenza A virus; test: Antiviral activity against influenza A virus H1N1 A/Puerto Rico/8/1934 infected in Kunming mouse assessed as survival rate at 1.67 mg/kg, po administered with compound twice daily for 7 days followed by viral infection on day 2 and measured for 14 days relative to control; type: functional; settings: H1N1 A/Puerto Rico/8/1934, 336 h, time 14 day
# [11] = Toxicity in Kunming mouse infected with influenza A virus H1N1 A/Puerto Rico/8/1934 assessed as reduction in body weight at 1.67 to 15 mg/kg, po administered with compound twice daily for 7 days followed by viral infection on day 2 and measured for 14 days relative to oseltamivir; type: organism-based; settings: in vivo, 336 h, dose 1.67-15 mg/kg, time 14 day
# [12] = tested on: Influenza A virus; test: Antiviral activity against influenza A virus H1N1 A/Puerto Rico/8/1934 infected in Kunming mouse assessed as survival rate at 5 to 15 mg/kg, po administered with compound twice daily for 7 days followed by viral infection on day 2 and measured for 14 days relative to control; type: functional; settings: dose 5-15 mg/kg, time 14 day
# [13] = Gastrointestinal toxicity in Kunming mouse infected with influenza A virus H1N1 A/Puerto Rico/8/1934 assessed as soft stool at 1.67 to 15 mg/kg, po administered with compound twice daily for 7 days followed by viral infection on day 2 and measured for 14 days; type: organism-based; settings: in vivo, 336 h, dose 1.67-15 mg/kg, time 14 day
# [14] = Toxicity in Kunming mouse infected with influenza A virus H1N1 A/Puerto Rico/8/1934 assessed as reduction in body weight at 5 to 15 mg/kg, po administered with compound twice daily for 7 days followed by viral infection on day 2 and measured for 14 days relative to oseltamivir; type: organism-based; settings: in vivo, 336 h, dose 5-15 mg/kg, time 14 day
# [15] = target: hERG (KCNH2) (Homo sapiens, UniProt Q12809); test: Inhibition of hERG at 10 uM relative to control; type: toxicity
# [16] = tested on: Influenza A virus; test: Antiviral activity against influenza A virus H1N1 A/Puerto Rico/8/1934 infected in Kunming mouse assessed as survival rate at 15 mg/kg, po administered with compound twice daily for 7 days followed by viral infection on day 2 and measured for 14 days relative to control; type: functional; settings: H1N1 A/Puerto Rico/8/1934, 336 h, time 14 day
# Sequence of hERG (KCNH2) (Q12809 whole entry): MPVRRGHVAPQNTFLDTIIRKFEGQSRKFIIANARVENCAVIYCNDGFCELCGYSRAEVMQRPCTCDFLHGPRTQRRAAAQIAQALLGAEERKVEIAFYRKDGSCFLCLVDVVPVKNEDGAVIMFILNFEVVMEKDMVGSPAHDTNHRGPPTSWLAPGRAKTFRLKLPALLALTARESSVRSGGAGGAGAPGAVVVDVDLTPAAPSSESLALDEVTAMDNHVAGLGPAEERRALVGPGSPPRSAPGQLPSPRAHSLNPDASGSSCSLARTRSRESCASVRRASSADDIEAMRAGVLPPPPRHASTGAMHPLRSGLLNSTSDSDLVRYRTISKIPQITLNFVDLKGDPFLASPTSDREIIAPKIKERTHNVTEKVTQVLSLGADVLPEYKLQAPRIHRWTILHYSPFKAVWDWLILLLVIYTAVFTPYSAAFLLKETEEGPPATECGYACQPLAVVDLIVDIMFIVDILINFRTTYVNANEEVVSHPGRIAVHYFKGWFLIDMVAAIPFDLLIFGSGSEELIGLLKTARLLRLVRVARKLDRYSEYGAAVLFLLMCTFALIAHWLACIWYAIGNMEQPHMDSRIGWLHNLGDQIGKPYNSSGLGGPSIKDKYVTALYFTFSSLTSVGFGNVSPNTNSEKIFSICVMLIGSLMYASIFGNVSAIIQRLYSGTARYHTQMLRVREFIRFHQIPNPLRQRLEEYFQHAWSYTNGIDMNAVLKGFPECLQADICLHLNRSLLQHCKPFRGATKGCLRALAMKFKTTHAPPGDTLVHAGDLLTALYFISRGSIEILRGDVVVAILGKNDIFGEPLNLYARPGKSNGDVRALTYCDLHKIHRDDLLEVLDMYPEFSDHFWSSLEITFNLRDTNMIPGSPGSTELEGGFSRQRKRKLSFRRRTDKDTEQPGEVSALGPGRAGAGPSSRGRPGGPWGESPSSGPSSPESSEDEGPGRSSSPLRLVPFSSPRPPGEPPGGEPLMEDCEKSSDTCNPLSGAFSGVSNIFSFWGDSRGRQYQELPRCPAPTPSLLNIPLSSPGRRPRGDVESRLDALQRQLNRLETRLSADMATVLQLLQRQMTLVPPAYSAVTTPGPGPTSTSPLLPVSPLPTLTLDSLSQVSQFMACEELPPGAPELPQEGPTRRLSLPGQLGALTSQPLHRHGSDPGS
Structure (SMILES),IC50 [1],CC50 [2],selectivity ratio [3],further results
Cn1nnc(C(c2ccc(F)cc2)N2CCN(C(=O)c3cc(-c4nc5cc(NC(=O)C(C)(C)C)ccc5o4)ccn3)CC2)n1 (stereo not drawn),350 nM,12800 nM,–,–
CC(=O)Nc1ccc2oc(-c3ccnc(C(=O)N4CCN(C(c5ccc(F)cc5)c5nnn(C(C)C)n5)CC4)c3)nc2c1 (stereo not drawn),220 nM,> 50000 nM,–,–
CC(=O)Nc1ccc2oc(-c3ccnc(C(=O)N4CCN([C@H](c5ccc(F)cc5)c5nnn(CCC(C)C)n5)CC4)c3)nc2c1,260 nM,> 100000 nM,> 384,–
CC(=O)Nc1ccc2oc(-c3ccnc(C(=O)N4CCN(C(c5ccc(F)cc5)c5nnn(CCC6CCCCC6)n5)CC4)c3)nc2c1 (stereo not drawn),820 nM,> 50000 nM,–,–
CC(=O)Nc1ccc2sc(-c3ccnc(C(=O)N4CCN(C(c5ccccc5)c5nnnn5C(C)C)CC4)c3)nc2c1 (stereo not drawn),> 15000 nM,38500 nM,–,–
CCC(CC)C(=O)Nc1ccc2oc(-c3ccnc(C(=O)N4CCN(C(c5ccc(F)cc5)c5nnn(C)n5)CC4)c3)nc2c1 (stereo not drawn),360 nM,28600 nM,–,–
CCCCn1nnc([C@@H](c2ccc(F)cc2)N2CCN(C(=O)c3cc(-c4nc5cc(NC(C)=O)ccc5o4)ccn3)CC2)n1,140 nM,> 100000 nM,> 714,–
CC(=O)Nc1ccc2oc(-c3ccnc(C(=O)N4CCN(C(c5ccc(F)cc5)c5nnn(C6CCCC6)n5)CC4)c3)nc2c1 (stereo not drawn),260 nM,> 50000 nM,–,–
CCCCn1nnc([C@H](c2ccc(F)cc2)N2CCN(C(=O)c3cc(-c4nc5cc(NC(C)=O)ccc5o4)ccn3)CC2)n1,1200 nM,> 100000 nM,> 83,–
CC(=O)Nc1ccc2oc(-c3ccnc(C(=O)N4CCN([C@@H](c5ccccc5)c5nnn(C(C)C)n5)CC4)c3)nc2c1,830 nM,> 100000 nM,> 120,–
C=Cn1nnc(C(c2ccc(F)cc2)N2CCN(C(=O)c3cc(-c4nc5cc(NC(C)=O)ccc5o4)ccn3)CC2)n1 (stereo not drawn),270 nM,> 50000 nM,–,–
Cn1nnc(C(c2ccc(F)cc2)N2CCN(C(=O)c3cc(-c4nc5cc(NC(=O)c6ccccc6)ccc5o4)ccn3)CC2)n1 (stereo not drawn),630 nM,10700 nM,–,–
CCCC(=O)Nc1ccc2oc(-c3ccnc(C(=O)N4CCN(C(c5ccc(F)cc5)c5nnn(C)n5)CC4)c3)nc2c1 (stereo not drawn),630 nM,> 50000 nM,–,–
CC(=O)Nc1ccc2oc(-c3ccnc(C(=O)N4CCN([C@H](c5ccccc5)c5nnn(C(C)C)n5)CC4)c3)nc2c1,100 nM,> 100000 nM,> 1000,–
CCC(CC)n1nnc([C@H](c2ccc(F)cc2)N2CCN(C(=O)c3cc(-c4nc5cc(NC(C)=O)ccc5o4)ccn3)CC2)n1,400 nM,> 100000 nM,> 250,–
CCC(=O)Nc1ccc2oc(-c3ccnc(C(=O)N4CCN(C(c5ccc(F)cc5)c5nnn(C)n5)CC4)c3)nc2c1 (stereo not drawn),450 nM,> 50000 nM,–,–
C=Cn1nnc([C@H](c2ccc(F)cc2)N2CCN(C(=O)c3cc(-c4nc5cc(NC(C)=O)ccc5o4)ccn3)CC2)n1,2930 nM,> 100000 nM,> 34,–
CCCCn1nnc(C(c2ccc(F)cc2)N2CCN(C(=O)c3cc(-c4nc5cc(NC(C)=O)ccc5o4)ccn3)CC2)n1 (stereo not drawn),380 nM,> 50000 nM,–,–
CC(=O)Nc1ccc2oc(-c3ccnc(C(=O)N4CCN(C(c5ccc(F)cc5)c5nnn(CC6CCCCC6)n5)CC4)c3)nc2c1 (stereo not drawn),360 nM,38500 nM,–,–
CC(=O)Nc1ccc2oc(-c3ccnc(C(=O)N4CCN(C(c5ccc(F)cc5)c5nnn(C6CCOCC6)n5)CC4)c3)nc2c1 (stereo not drawn),1080 nM,> 50000 nM,–,–
CC(=O)Nc1ccc2sc(-c3ccnc(C(=O)N4CCN(C(c5ccccc5)c5nnn(C(C)C)n5)CC4)c3)nc2c1 (stereo not drawn),1430 nM,> 50000 nM,–,–
COCCn1nnc(C(c2ccc(F)cc2)N2CCN(C(=O)c3cc(-c4nc5cc(NC(C)=O)ccc5o4)ccn3)CC2)n1 (stereo not drawn),2470 nM,> 50000 nM,–,–

Structure (SMILES),IC50 [1],CC50 [2],selectivity ratio [3],further results
CCC(CC)n1nnc(C(c2ccc(F)cc2)N2CCN(C(=O)c3cc(-c4nc5cc(NC(C)=O)ccc5o4)ccn3)CC2)n1 (stereo not drawn),360 nM,> 50000 nM,–,–
CCCn1nnc(C(c2ccc(F)cc2)N2CCN(C(=O)c3cc(-c4nc5cc(NC(C)=O)ccc5o4)ccn3)CC2)n1 (stereo not drawn),630 nM,> 50000 nM,–,–
CC(=O)Nc1ccc2oc(-c3ccnc(C(=O)N4CCN(C(c5ccc(F)cc5)c5nnn(C6CC6)n5)CC4)c3)nc2c1 (stereo not drawn),1190 nM,> 50000 nM,–,–
CC(=O)Nc1ccc2oc(-c3ccnc(C(=O)N4CCN(C(c5ccc(F)cc5)c5nnn(C)n5)CC4)c3)nc2c1 (stereo not drawn),–,–,–,Activity [4]: inactive; Activity [5]: inactive
CC(=O)Nc1ccc2oc(-c3ccnc(C(=O)N4CCN([C@H](c5ccc(F)cc5)c5nnn(C6CCCC6)n5)CC4)c3)nc2c1,110 nM,87200 nM,792,Cmax [6]: 992 ng/mL; half-life [7]: 26.5 min; AUC(0-inf) [8]: 692 ng·h/mL; Tmax [9]: 15 min
CCC(CC)n1nnc([C@@H](c2ccc(F)cc2)N2CCN(C(=O)c3cc(-c4nc5cc(NC(C)=O)ccc5o4)ccn3)CC2)n1,90 nM,> 100000 nM,> 1110,–
CC(=O)Nc1ccc2oc(-c3ccnc(C(=O)N4CCN([C@@H](c5ccc(F)cc5)c5nnn(CCC(C)C)n5)CC4)c3)nc2c1,2510 nM,> 100000 nM,> 39,–
CC(=O)Nc1ccc2oc(-c3ccnc(C(=O)N4CCN([C@@H](c5ccc(F)cc5)c5nnn(C(C)C)n5)CC4)c3)nc2c1,2560 nM,> 100000 nM,> 39,–
CC(=O)Nc1ccc2oc(-c3ccnc(C(=O)N4CCN(C(c5ccc(F)cc5)c5nnn(C6CCCCC6)n5)CC4)c3)nc2c1 (stereo not drawn),270 nM,> 50000 nM,–,–
CC(=O)Nc1ccc2oc(-c3ccnc(C(=O)N4CCN(C(c5ccccc5)c5nnnn5C(C)C)CC4)c3)nc2c1 (stereo not drawn),> 15000 nM,> 50000 nM,–,–
Cn1nnc(C(c2ccc(F)cc2)N2CCN(C(=O)c3cc(-c4nc5cc(NC(=O)C6CCCC6)ccc5o4)ccn3)CC2)n1 (stereo not drawn),630 nM,5140 nM,–,–
CC(=O)Nc1ccc2oc(-c3ccnc(C(=O)N4CCN(C(c5ccc(F)cc5)c5nnn(CCC(C)C)n5)CC4)c3)nc2c1 (stereo not drawn),350 nM,> 50000 nM,–,–
CC(=O)Nc1ccc2oc(-c3ccnc(C(=O)N4CCN(C(c5ccccc5)c5nnn(C(C)C)n5)CC4)c3)nc2c1 (stereo not drawn),150 nM,> 50000 nM,–,–
Cn1nnc(C(c2ccc(F)cc2)N2CCN(C(=O)c3cc(-c4nc5cc(NC(=O)C6CCCCC6)ccc5o4)ccn3)CC2)n1 (stereo not drawn),820 nM,1430 nM,–,–
CC(=O)Nc1ccc2oc(-c3ccnc(C(=O)N4CCN([C@@H](c5ccc(F)cc5)c5nnn(C6CCCC6)n5)CC4)c3)nc2c1,510 nM,96200 nM,188,–
CCn1nnc(C(c2ccc(F)cc2)N2CCN(C(=O)c3cc(-c4nc5cc(NC(C)=O)ccc5o4)ccn3)CC2)n1 (stereo not drawn),630 nM,> 50000 nM,–,–
Cn1nnc(C(c2ccc(F)cc2)N2CCN(C(=O)c3cc(-c4nc5cc(NC(=O)C6CCCO6)ccc5o4)ccn3)CC2)n1 (stereo not drawn),820 nM,> 50000 nM,–,–
CC(=O)Nc1ccc2oc(-c3ccnc(C(=O)N4CCN([C@H](c5ccc(F)cc5)c5nnn(C)n5)CC4)c3)nc2c1,–,> 100000 nM,–,survival at 1.67 mg/kg [10]: 70%; Activity [11]: Non-Toxic; Survival [12]: 100%; Activity [13]: Toxic
Cn1nnc(C(c2ccc(F)cc2)N2CCN(C(=O)c3cc(-c4nc5cc(NC(=O)c6ccco6)ccc5o4)ccn3)CC2)n1 (stereo not drawn),220 nM,12800 nM,–,–
CC(=O)Nc1ccc2oc(-c3ccnc(C(=O)N4CCN([C@H](c5ccccc5)c5nnn(C)n5)CC4)c3)nc2c1,–,–,–,survival at 1.67 mg/kg [10]: 80%; Activity [14]: Non-Toxic; Survival [12]: 100%; Activity [4]: inactive; Activity [5]: inactive
C=Cn1nnc([C@@H](c2ccc(F)cc2)N2CCN(C(=O)c3cc(-c4nc5cc(NC(C)=O)ccc5o4)ccn3)CC2)n1,30 nM,> 100000 nM,> 3330,inhibition at 10 µM [15]: 36.4%; Cmax [6]: 2130 ng/mL; half-life [7]: 94.2 min; AUC(0-inf) [8]: 2100 ng·h/mL; Tmax [9]: 15 min
CC(=O)Nc1ccc2oc(-c3ccnc(C(=O)N4CCN([C@H](c5ccc(F)cc5)c5nnn(C(C)C)n5)CC4)c3)nc2c1,30 nM,> 100000 nM,> 3330,survival at 15 mg/kg [16]: 80%; inhibition at 10 µM [15]: 27.1%; Cmax [6]: 3770 ng/mL; half-life [7]: 75 min; AUC(0-inf) [8]: 2980 ng·h/mL; Tmax [9]: 15 min

# — ChEMBL document CHEMBL5385857, “Optimization and SAR research at the benzoxazole and tetrazole rings of JNJ4796 as new anti-influenza A virus agents, part 2” (Eur J Med Chem, 2023)
